Results reported in US20230241071A1, “COMBINATION TREATMENT OF LIVER DISORDERS” (Terns Pharmaceuticals, Inc., priority 2021, published 2023).
Like-named read-outs stand apart in the source and are kept apart here. Marks after values point to notes of the source that are not given here.

How the values were obtained:
Approximate pKa = format: physicochemical
[1] = Single-ascending dose trial of Compound 2 in healthy participants: safety and PK; format: in vivo, human; conditions: for half-life / AUC(0-inf) / Cmax / Tmax: human, plasma, oral; for AUC(0-inf) / Cmax: mean; for fe, fraction of dose excreted in urine as unmodified compound 2: mean (% CV)
Experimental: A single-ascending dose clinical trial of Compound 2 (potassium salt) was performed.
Compound 2 plasma and urine concentrations were determined using validated liquid chromatography-tandem mass spectrometry assay
Urine samples for Compound 2 concentration and PK sampling were collected pre-dose and at the following timepoints: 0-6 hours, 6-12 hours, 12-24 hours, and 24-48 hours. PK parameters were estimated via noncompartmental methods using Phoenix® WinNonlin® (Certara, LP, Princeton, N.J.). Concentrations of serum pharmacodynamic (PD) biomarkers apolipoprotein B (Apo B) and sex hormone binding globulin (SHBG) were measured using an immunoassay and serum lipids were determined using spectrophotometry.

[2] = Capsule pharmacokinetics in beagle dogs; format: in vivo, dog
Experimental: To determine the effect of the solubilizer on the uptake of compound 2, 50 mg (based on free acid) Compound 2 was formulated in a capsule with or without 5 wt % SLS (see Table 10) and was administered to fasted beagle dogs pre-treated with pentagastrin (6 μg/kg, administered by intramuscular injection 30±2 minutes prior to administration of compound 2). The plasma concentration of compound 2 was measured over 24 hours (see FIG. 9).
To determine the pH effect on PK performance, beagle dogs were divided into two groups (n=3 per group). For group 1, dogs were pre-treated with pentagastrin (6 μg/kg, intramuscular injection 30±2 minutes prior to administration of compound 2). For group 2, dogs were pre-treated with famotidine (2 tablets, 20 mg/tablet, oral administration 180±10 minutes prior to administration of compound 2). Compound 2 (10 mg capsule, 5% SLS) was administered, and plasma concentrations of compound 2 were monitored for 24 h and are depicted in FIG. 10. […] To determine the food effect on PK performance, beagle dogs were divided into two groups (n=3 per group). For the fasted group, dogs were fasted overnight through 4-hours post dosing. For the fed group, dogs were fed high fat food 30 minutes prior to administration. Plasma concentrations of compound 2 were monitored for 24 h. Compound 2 (10 mg capsule, 5% SLS) was administered, and plasma concentrations of compound 2 were monitored for 24 h and are depicted in FIG. 11.

THR-β = molecular target: T1, THR-β (Homo sapiens, UniProt P10828); experiment: Agonistic activity toward the thyroxine receptor beta; format: biochemical
T1 sequence (P10828 1-461): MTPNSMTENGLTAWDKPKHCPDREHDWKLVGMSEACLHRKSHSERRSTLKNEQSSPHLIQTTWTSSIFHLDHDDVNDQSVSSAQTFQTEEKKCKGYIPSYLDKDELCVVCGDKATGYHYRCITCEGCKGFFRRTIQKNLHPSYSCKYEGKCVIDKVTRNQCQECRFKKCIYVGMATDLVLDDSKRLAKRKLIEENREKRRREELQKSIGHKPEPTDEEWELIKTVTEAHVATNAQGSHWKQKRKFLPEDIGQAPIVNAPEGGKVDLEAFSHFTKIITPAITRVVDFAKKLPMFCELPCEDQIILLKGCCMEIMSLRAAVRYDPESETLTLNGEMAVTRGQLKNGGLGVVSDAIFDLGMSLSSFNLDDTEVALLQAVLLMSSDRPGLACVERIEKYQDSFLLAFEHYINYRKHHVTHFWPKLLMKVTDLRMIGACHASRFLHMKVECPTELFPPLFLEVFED

[3] = pH and solubilizer effect on solubility; format: physicochemical; conditions: potassium salt; for solubility at 24 h: 25 °C, thermodynamic from solid
Experimental: Solubility of compound 2 (potassium salt) was evaluated at various pH levels.

[4] = single dose 3 mg, fasted (n = 6)
[5] = single dose 10 mg, fasted (n = 6)
[6] = single dose 30 mg, fasted (n = 6)
[7] = single dose 60 mg, fasted (n = 6)

With `N#Cc1nn(-c2cc(Cl)c(Oc3n[nH]c(=O)c4ccccc34)c(Cl)c2)c(=O)[nH]c1=O` [Compound 2, 2-(3,5-dichloro-4-((4-oxo-3,4-dihydrophthalazin-1-yl)oxy)phenyl)-3,5-dioxo-2,3,4,5-tetrahydro-1,2,4-triazine-6-carbonitrile] the pKa (Approximate pKa) was roughly 4.12, the heart rates ([1]; 24 hours after single dose) was “remained stable and within the normal range” and the renal excretion ([1]; all single doses) was “Minimal renal excretion”. It also gave a half-life ([1]; 3 mg, single dose 3 mg, fasted (n = 6), median (min-max), read-out: t1/2 (converted)) of 17.3 h, a half-life ([1]; 10 mg, single dose 10 mg, fasted (n = 6), median (min-max), read-out: t1/2 (converted)) of 14.4 h and a half-life ([1]; 30 mg, single dose 30 mg, fasted (n = 6), median (min-max), read-out: t1/2 (converted)) of 15.7 h. For the same compound, the half-life ([1]; 60 mg, single dose 60 mg, fasted (n = 6), median (min-max), read-out: t1/2 (converted)) was 13.8 h, the half-life ([1]; single dose 3-60 mg, read-out: half-life (median) across single dose levels) was 13.8 to 17.3 h and the AUC(0-inf) [1, 4] was 4060 ng·h/mL. The Cmax [1, 4] was 217 ng/mL, the Tmax ([1]; single dose 3 mg, fasted (n = 6), median (min-max)) was 4 h and the AUC(0-inf) [1, 5] was 8110 ng·h/mL. It also gave a Cmax [1, 5] of 614 ng/mL, a Tmax ([1]; single dose 10 mg, fasted (n = 6), median (min-max)) of 4 h and an AUC(0-inf) [1, 6] of 33000 ng·h/mL. The Cmax [1, 6] was 1800 ng/mL, the Tmax ([1]; single dose 30 mg, fasted (n = 6), median (min-max)) was 4 h and the AUC(0-inf) [1, 7] was 50000 ng·h/mL. For the same compound, the Cmax [1, 7] was 3300 ng/mL, the Tmax ([1]; single dose 60 mg, fasted (n = 6), median (min-max)) was 4 h and the “overall safety and tolerability” value ([1]; single ascending doses up to 60 mg) was “safe and well-tolerated”. The “AEs by relationship to drug: Not related” value ([1]; single dose 3 mg (n = 6)) was 2 (33.3%), the “AEs by relationship to drug: Possibly related” value (shortened to “AEs … Possibly related”) ([1]; single dose 3 mg (n = 6)) was 0 and the “AEs by relationship to drug: Related” value ([1]; single dose 3 mg (n = 6)) was 0. For the same compound, the “AEs by relationship to drug: Unlikely related” value (from here on “AEs … Unlikely related”) ([1]; single dose 3 mg (n = 6)) was 0, the “Any AE, all CTCAE grades” value ([1]; single dose 3 mg (n = 6)) was 2 (33.3%) and the “CTCAE Grade 1 AEs” value ([1]; single dose 3 mg (n = 6)) was 0. For the same compound, the “CTCAE Grade 2 AEs” value ([1]; single dose 3 mg (n = 6)) was 0, the “CTCAE Grade 3 or higher AEs” value ([1]; single dose 3 mg (n = 6)) was 0 and the “Serious AEs” value ([1]; single dose 3 mg (n = 6)) was 0. The “fe, fraction of dose excreted in urine as unmodified compound 2” value (“fe, fraction of dose excreted in urine” for short) [1, 4] was 2.95 (62) % dose, urine, the “AEs by relationship to drug: Not related” value ([1]; single dose 10 mg (n = 6)) was 0 and the “AEs … Possibly related” value ([1]; single dose 10 mg (n = 6)) was 0. The “AEs by relationship to drug: Related” value ([1]; single dose 10 mg (n = 6)) was 0, the “AEs … Unlikely related” value ([1]; single dose 10 mg (n = 6)) was 0 and the “Any AE, all CTCAE grades” value ([1]; single dose 10 mg (n = 6)) was 0. For the same compound, the “CTCAE Grade 1 AEs” value ([1]; single dose 10 mg (n = 6)) was 0, the “CTCAE Grade 2 AEs” value ([1]; single dose 10 mg (n = 6)) was 0 and the “CTCAE Grade 3 or higher AEs” value ([1]; single dose 10 mg (n = 6)) was 0. The “Serious AEs” value ([1]; single dose 10 mg (n = 6)) was 0, the “fe, fraction of dose excreted in urine” value [1, 5] was 2.05 (74) % dose, urine and the “AEs by relationship to drug: Not related” value ([1]; single dose 30 mg (n = 6)) was 1 (16.7%). For the same compound, the “AEs … Possibly related” value ([1]; single dose 30 mg (n = 6)) was 1 (16.7%)*, the “AEs by relationship to drug: Related” value ([1]; single dose 30 mg (n = 6)) was 0 and the “AEs … Unlikely related” value ([1]; single dose 30 mg (n = 6)) was 0. The “Any AE, all CTCAE grades” value ([1]; single dose 30 mg (n = 6)) was 2 (33.3%), the “CTCAE Grade 1 AEs” value ([1]; single dose 30 mg (n = 6)) was 1 (16.7%) and the “CTCAE Grade 2 AEs” value ([1]; single dose 30 mg (n = 6)) was 1 (16.7%). The “CTCAE Grade 3 or higher AEs” value ([1]; single dose 30 mg (n = 6)) was 0, the “Serious AEs” value ([1]; single dose 30 mg (n = 6)) was 0 and the “fe, fraction of dose excreted in urine” value [1, 6] was 1.78 (35) % dose, urine. For the same compound, the “AEs by relationship to drug: Not related” value ([1]; single dose 60 mg (n = 6)) was 0, the “AEs … Possibly related” value ([1]; single dose 60 mg (n = 6)) was 0 and the “AEs by relationship to drug: Related” value ([1]; single dose 60 mg (n = 6)) was 0. For the same compound, the “AEs … Unlikely related” value ([1]; single dose 60 mg (n = 6)) was 0, the “Any AE, all CTCAE grades” value ([1]; single dose 60 mg (n = 6)) was 0 and the “CTCAE Grade 1 AEs” value ([1]; single dose 60 mg (n = 6)) was 0. For the same compound, the “CTCAE Grade 2 AEs” value ([1]; single dose 60 mg (n = 6)) was 0, the “CTCAE Grade 3 or higher AEs” value ([1]; single dose 60 mg (n = 6)) was 0 and the “Serious AEs” value ([1]; single dose 60 mg (n = 6)) was 0. For the same compound, the “fe, fraction of dose excreted in urine” value [1, 7] was 1.53 (53) % dose, urine, the “TSH, free T3, and free T4 levels” value ([1]; single dose 3-60 mg) was “remained within the normal range” and the “cardiac related AEs” value ([1]; single dose 3-60 mg) was “No cardiac related AEs”. The “exposures (AUC, Cmax), dose proportionality” value ([1]; single dose 3-60 mg) was “approximately dose-proportional”, the “half-life (median) across single dose levels” value ([1]; single dose 3-60 mg) was greater than 13 h and the “severity of adverse events” value ([1]; single dose 3-60 mg) was “mild or moderate”. The “subjects with increases in ALT more than 2-times greater than ULN” value ([1]; single dose 3-60 mg) was “No subjects”, the “food effect on PK performance” value ([2]; 10 mg capsule, 5% SLS, fasted vs high fat food) was “delayed Compound 2 Tmax but did not have an impact on the plasma exposure” and the “pH effect on PK performance” value ([2]; 10 mg capsule, 5% SLS, pentagastrin vs famotidine pre-treatment) was “Minimal pH effect”. The “increase of exposure (Cmax, AUC) by formulation with 5 wt % SLS” value ([2]; 50 mg capsule with vs without 5 wt % SLS, fasted beagle dogs) was “more than 70%”, the EC50 (THR-β) was 1750 nM and the solubility at 24 h ([3]; 0.1N HCl with 2 wt % SLS, aqueous with cosolvent or surfactant or cyclodextrin, 0.1N HCl, with 2 wt % SLS) was 5.7 µg/mL. The solubility at 24 h ([3]; 0.1N HCl, simulated gastric fluid, without 2 wt % SLS) was less than 0.03 µg/mL, the solubility at 24 h ([3]; pH 2.0 buffer with 2 wt % SLS, pH 2, aqueous with cosolvent or surfactant or cyclodextrin, pH 2.0 buffer, with 2 wt % SLS) was 5.5 µg/mL and the solubility at 24 h ([3]; pH 2.0 buffer, pH 2, aqueous buffer, without 2 wt % SLS) was less than 0.07 µg/mL. It also gave a solubility at 24 h ([3]; pH 4.0 buffer with 2 wt % SLS, pH 4, aqueous with cosolvent or surfactant or cyclodextrin, pH 4.0 buffer, with 2 wt % SLS) of 10 µg/mL, a solubility at 24 h ([3]; pH 4.0 buffer, pH 4, aqueous buffer, without 2 wt % SLS) of less than 0.07 µg/mL and a solubility at 24 h ([3]; pH 6.0 buffer with 2 wt % SLS, pH 6, aqueous with cosolvent or surfactant or cyclodextrin, pH 6.0 buffer, with 2 wt % SLS) of 42.3 µg/mL. The solubility at 24 h ([3]; pH 6.0 buffer, pH 6, aqueous buffer, without 2 wt % SLS) was 2.2 µg/mL, the solubility at 24 h ([3]; pH 8.0 buffer with 2 wt % SLS, pH 8, aqueous with cosolvent or surfactant or cyclodextrin, pH 8.0 buffer, with 2 wt % SLS) was 302 µg/mL and the solubility at 24 h ([3]; pH 8.0 buffer, pH 8, aqueous buffer, without 2 wt % SLS) was 10.8 µg/mL. For the same compound, the solubility at 24 h ([3]; pH 10.0 buffer with 2 wt % SLS, pH 10, aqueous with cosolvent or surfactant or cyclodextrin, pH 10.0 buffer, with 2 wt % SLS) was 308 µg/mL, the solubility at 24 h ([3]; pH 10.0 buffer, pH 10, aqueous buffer, without 2 wt % SLS) was 10.2 µg/mL and the Solubility ([3]; pH 10.0 buffer, 24 h, with 2 wt % SLS, 25° C.) was 308.2 µg/mL.
